Target: T1, Mitochondrial peptide methionine sulfoxide reductase (Bos taurus, UniProt P54149)
T1 sequence (P54149 whole entry): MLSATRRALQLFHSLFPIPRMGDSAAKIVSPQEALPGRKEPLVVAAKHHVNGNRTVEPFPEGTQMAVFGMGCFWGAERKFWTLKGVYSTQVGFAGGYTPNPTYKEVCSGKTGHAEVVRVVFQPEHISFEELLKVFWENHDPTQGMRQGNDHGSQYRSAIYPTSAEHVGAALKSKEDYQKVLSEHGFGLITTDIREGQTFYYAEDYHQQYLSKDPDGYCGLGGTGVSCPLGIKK

First: COc1ccc(C=NNC(=O)C(C=Nc2nccc(C)n2)NC(=O)c2ccccc2)cc1 (stereo not drawn) [N-[(E)-3-[(2Z)-2-[(4-methoxyphenyl)methylidene]hydrazinyl]-1-[(4-methylpyrimidin-2-yl)amino]-3-oxidanylidene-prop-1-en-2-yl]benzamide]
Second: COc1ccc2nc(C)cc(N=NCc3ccc(F)cc3)c2c1 [N-[(4-fluorophenyl)methylideneamino]-6-methoxy-2-methyl-4-quinolinamine]
The IC50 of the first is 12-fold higher: 149 µM for the first, 12.8 µM for the second. The second is the more potent here.

`COc1cccc2c1Oc1cc([N+](=O)[O-])cc(N(C)C(C)=O)c1C=C2` [SMR000559347] and `Cc1cc([N+](=O)[O-])ccc1Nc1nc2ccccc2n2cnnc12` [N-(2-methyl-4-nitrophenyl)[1,2,4]triazolo[4,3-a]quinoxalin-4-amine] cannot be ordered by IC50: > 155 µM for the first, > 155 µM for the second.

`Cc1cc(C)c2nc(C(F)(F)F)nc(N3CC(C)OC(C)C3)c2c1` (stereo not drawn) [4-(2,6-dimethyl-4-morpholinyl)-6,8-dimethyl-2-(trifluoromethyl)quinazoline] and `COc1ccccc1-c1cc(C(F)(F)F)nc(N2CCOCC2)n1` cannot be ordered by IC50: > 155 µM for the first, > 155 µM for the second.

`CCOC(=O)C1CCN(C(=O)c2c(C)oc3c2C(=O)c2ccccc2C3=O)CC1` and `CC(=O)COc1ccc2c(-c3ccccc3)cc(=O)oc2c1C` [8-methyl-7-(2-oxidanylidenepropoxy)-4-phenyl-chromen-2-one] cannot be ordered by IC50: > 155 µM for the first, > 155 µM for the second.

`O=C(N/N=C/c1ccc2c(c1)OCO2)c1ccc(Br)o1` [SMR000185016] and `COC(=O)c1ccc(S(=O)(=O)N2CCCN(Cc3cccc(Br)c3F)CC2)n1C` [5-[[4-[(3-bromo-2-fluorophenyl)methyl]-1,4-diazepan-1-yl]sulfonyl]-1-methyl-2-pyrrolecarboxylic acid methyl ester] cannot be ordered by IC50: > 155 µM for the first, > 155 µM for the second.

`Cc1ccc(-c2cc(C(F)F)nc(N3CCOCC3)n2)cc1` and `O=[N+]([O-])c1cc([N+](=O)[O-])c(N2CCOCC2)cc1NCc1ccccc1` [5-morpholin-4-yl-2,4-dinitro-N-(phenylmethyl)aniline] cannot be ordered by IC50: > 155 µM for the first, > 155 µM for the second.

`Cc1ccccc1-c1nc(C#N)c(N2CCCCC2)o1` [MLS001165046] and `CC(=O)c1cccc(Oc2cc(NN3CCCCC3)c([N+](=O)[O-])cc2[N+](=O)[O-])c1` [1-[3-[2,4-dinitro-5-(1-piperidinylamino)phenoxy]phenyl]ethanone] cannot be ordered by IC50: > 155 µM for the first, > 155 µM for the second.

`CC(Nc1cc(N2CCN(S(=O)(=O)N(C)C)CC2)ccc1[N+](=O)[O-])c1ccccc1` (stereo not drawn) [MLS000676463] and `[O-][N+]1=c2ccc(Nc3ccccc3)cc2=NC12CCCCC2` [1-oxido-N-phenyl-5-spiro[benzimidazol-1-ium-2,1'-cyclohexane]amine] cannot be ordered by IC50: > 155 µM for the first, > 155 µM for the second.

`N#Cc1c(-n2cccc2C=O)sc2c1CCCC2` [2-(2-methanoylpyrrol-1-yl)-4,5,6,7-tetrahydro-1-benzothiophene-3-carbonitrile] and `N#Cc1c(-n2cccc2CN=O)sc2c1CCCC2` [SMR000009830] cannot be ordered by IC50: > 155 µM for the first, > 155 µM for the second.

`O=Cc1c(-c2ccccc2)nc2ccccn12` [2-phenyl-3-imidazo[1,2-a]pyridinecarboxaldehyde] and `O=c1cnn(-c2ccccc2)c(-c2ccccc2)c1` [SMR000060054] cannot be ordered by IC50: > 155 µM for the first, > 155 µM for the second.

`Cc1ccccc1-n1c(SCc2cccc(F)c2)nc2[nH]ncc2c1=O` [6-[(3-fluorobenzyl)thio]-5-(2-methylphenyl)-2,5-dihydro-4H-pyrazolo[3,4-d]pyrimidin-4-one] and `Cc1ccc(C)n1-n1c(C)nc2scc(-c3ccccc3)c2c1=O` [MLS000564386] cannot be ordered by IC50: > 155 µM for the first, > 155 µM for the second.

`Cc1ccc(Nc2ccc(C(F)(F)F)cc2[N+](=O)[O-])cc1` and `Cc1ccccc1Nc1ncnc2n[nH]cc12` [SMR001556847] cannot be ordered by IC50: > 155 µM for the first, > 155 µM for the second.

`CC(=O)N1N=C(c2ccncc2)OC1(Cc1ccccc1)Cc1ccccc1` and `c1ccc(-n2nnnc2-n2nnc3ccccc32)cc1` [1-(1-phenyl-1,2,3,4-tetrazol-5-yl)benzotriazole] cannot be ordered by IC50: > 155 µM for the first, > 155 µM for the second.

`CC(C)(C)c1cc([N+](=O)[O-])cc(C(C)(C)C)c1O` [MLS000755910] and `COc1cccc(C2=Nc3nnnn3C(c3cccc(OC)c3OC)C2)c1` (stereo not drawn) cannot be ordered by IC50: > 155 µM for the first, > 155 µM for the second.

— BindingDB's records for doi:10.7270/Q2639NCQ (The Scripps Research Institute Molecular Screening Center, 2013)
